From patent US12157730B2, “Heteroaryl derivative, method for producing same, and pharmaceutical composition comprising same as effective component” (VORONOI INC., priority 2019, dated 2024)

Target: T1, Ba/F3 cell EGFR Exon20 ins NPH (Homo sapiens, UniProt P00533, INS773NPH)
T1 construct: expressed in transfected cells; host or cells: Ba/F3
Assay: Ba/F3 cell proliferation suppression, EGFR Exon20 ins NPH
Assay type: cell-based
Conditions: GI50 class; Ba/F3 cell line with NPH inserted at Exon20 of EGFR; 72 hours
Procedure, shortened: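 72 h compound exposure, 0.3 nM–50 um (12 points, 3:1 dilution in DMSO); viability by CellTiter-Glo luminescence. Ba/F3 medium: RPMI-1640, 10% FBS, 5 ng/ml IL-3, 1 ug/ml puromycin for transduced cells. GI50 vs control, n=3.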

Row | SMILES | Ba/F3 (NPH) Activity
1 | C=CC(=O)Nc1cc(Nc2cc(N3OCC[C@@H]3Cc3cccc(F)c3)ncn2)c(OC)cc1N1CCC(N2CCOCC2)CC1 [compound 996, N-(5-((6-((S)-3-(3-fluorobenzyl)isoxazolidine-2-yl)pyrimidine-4-yl)amino)-4-methoxy-2-(4-morpholinopiperidine-1-yl)phenyl)acrylamide] | A (GI50 < 50 nM)
2 | C=CC(=O)Nc1cc(Nc2cc(N3OCC[C@@H]3c3ccc(Cl)c(F)c3)ncn2)c(OC)cc1N1CCC(N2C[C@H]3C[C@@H]2CN3CC)CC1 [compound 859, N-(5-((6-((R)-3-(4-chloro-3-fluorophenyl)isoxazolidine-2-yl)pyrimidine-4-yl)amino)-2-(4-((1R,4R)-5-ethyl-2,5-diazabicyclo [2.2.1]heptane-2-yl)piperidine-1-yl)-4-methoxyphenyl) acrylamide] | A (GI50 < 50 nM)
3 | C=CC(=O)Nc1cc(Nc2cc(N3OCC[C@@H]3c3ccc(Cl)c(Cl)c3)ncn2)c(OC)cc1N1CC[C@@H](N(C)C)C1 [compound 682, N-(5-((6-((R)-3-(3,4-dichlorophenyl)isoxazolidine-2-yl)pyrimidine-4-yl)amino)-2-((R)-3-(dimethylamino)pyrolidine-1-yl)-4-methoxyphenyl) acrylamide] | A (GI50 < 50 nM)
4 | C=CC(=O)Nc1cc(Nc2cc(N3OCC[C@@H]3c3ccc(C)nc3)ncn2)c(OC)cc1N1CCC(N2C[C@H]3C[C@@H]2CN3C)CC1 [Example 234, N-(4-methoxy-2-(4-((1R,4R)-5-methyl-2,5-diazabicyclo[2.2.1]heptane-2-yl)piperidine-1-yl)-5-((6-((R)-3-(6-methylpyridine-3-yl)isoxazolidine-2-yl)pyrimidine-4-yl)amino)phenyl)acrylamide] | C (500 nM ≤ GI50 < 5000 nM)
5 | C=CC(=O)Nc1cc(Nc2cc(N3OCC[C@@H]3c3cc(F)ccc3F)ncn2)c(OC)cc1N1CCC(N2CCN(C3CCC3)CC2)CC1 [Example 77, N-(2-(4-(4-cyclobutylpiperazine-1-yl)piperidine-1-yl)-5-((6-((R)-3-(2,5-difluorophenyl)isoxazolidine-2-yl)pyrimidine-4-yl)amino)-4-methoxyphenyl) acrylamide] | A (GI50 < 50 nM)
6 | C=CC(=O)Nc1cc(Nc2cc(N3OCC[C@@H]3c3cccc(Cl)c3C)ncn2)c(OC)cc1N1CCC(N2CCN(C3CCC3)CC2)CC1 [Example 188, N-(5-((6-((R)-3-(3-chloro-2-methylphenyl)isoxazolidine-2-yl)pyrimidine-4-yl)amino)-2-(4-(4-cyclobutylpiperazine-1-yl)piperidine-1-yl)-4-methoxyphenyl) acrylamide] | A (GI50 < 50 nM)
7 | C=CC(=O)Nc1cc(Nc2cc(N3OCC[C@@H]3Cc3cccc(Cl)c3OC)ncn2)c(OC)cc1N1CCC(N2CCN(C3CC3)CC2)CC1 [compound 1054, N-(5-((6-((S)-3-(3-chloro-2-methoxybenzyl)isoxazolidine-2-yl)pyrimidine-4-yl)amino)-2-(4-(4-cyclopropylpiperazine-1-yl)piperidine-1-yl)-4-methoxyphenyl) acrylamide] | A (GI50 < 50 nM)
8 | C=CC(=O)Nc1cc(Nc2cc(N3OCC[C@@H]3Cc3cccc(F)c3)ncn2)c(OC)cc1N(C)CCN(C)C [compound 992, N-(2-((2-(dimethylamino)ethyl) (methyl)amino)-5-((6-((S)-3-(3-fluorobenzyl)isoxazolidine-2-yl)pyrimidine-4-yl)amino)-4-methoxyphenyl) acrylamide] | A (GI50 < 50 nM)
9 | C=CC(=O)Nc1cc(Nc2cc(N3OCC[C@H]3Cc3ccccn3)ncn2)c(OC)cc1N1CCC(N2CCN(C3CC3)CC2)CC1 [compound 1058, N-(2-(4-(4-cyclopropylpiperazine-1-yl)piperidine-1-yl)-4-methoxy-5-((6-((R)-3-(pyridine-2-ylmethyl)isoxazolidine-2-yl)pyrimidine-4-yl)amino)phenyl)acrylamide] | C (500 nM ≤ GI50 < 5000 nM)
10 | C=CC(=O)Nc1cc(Nc2cc(N3OCC[C@@H]3Cc3ccccc3)ncn2)c(OC)cc1N1CCN(C2CCN(C)CC2)CC1 [compound 970, N-(5-((6-((S)-3-benzylisoxazolidine-2-yl)pyrimidine-4-yl)amino)-4-methoxy-2-(4-(1-methylpiperidine-4-yl)piperazine-1-yl)phenyl)acrylamide] | A (GI50 < 50 nM)
11 | COc1cc(N2CCC(N3CCN(C4CC4)CC3)CC2)c(NC(=O)/C=C/CN(C)C)cc1Nc1cc(N2OCC[C@@H]2c2cc(F)cc(F)c2)ncn1 [Example 117, N-(2-(4-(4-cyclopropylpiperazine-1-yl)piperidine-1-yl)-5-((6-((R)-3-(3,5-difluorophenyl)isoxazolidine-2-yl)pyrimidine-4-yl)amino)-4-methoxyphenyl)-(E)-4-(dimethylamino) but-2-enamide] | A (GI50 < 50 nM)
12 | C=CC(=O)Nc1cc(Nc2cc(N3OCC[C@@H]3c3cccc(C#N)c3)ncn2)c(OC)cc1N1CCC(N2CCN(C3CC3)CC2)CC1 [Example 141, N-(5-((6-((R)-3-(3-cyanophenyl)isoxazolidine-2-yl)pyrimidine-4-yl)amino)-2-(4-(4-cyclopropylpiperazine-1-yl)piperidine-1-yl)-4-methoxyphenyl) acrylamide] | A (GI50 < 50 nM)
13 | C=CC(=O)Nc1cc(Nc2cc(N3OCC[C@@H]3c3ccc(Cl)c(Cl)c3F)ncn2)c(OC)cc1N1CCC(N2CC[C@H](N(C)C)C2)CC1 [compound 772, N-(5-((6-((R)-3-(3,4-dichloro-2-fluorophenyl)isoxazolidine-2-yl)pyrimidine-4-yl)amino)-2-(4-((S)-3-(dimethylamino)pyrolidine-1-yl)piperidine-1-yl)-4-methoxyphenyl) acrylamide] | B (50 nM ≤ GI50 < 500 nM)
14 | C=CC(=O)Nc1cc(Nc2cc(N3OCC[C@@H]3c3ccc(C)nc3)ncn2)c(OC)cc1N1CCC(N(C)CCOC)CC1 [Example 229, N-(4-methoxy-2-(4-((2-methoxyethyl)(methyl)amino)piperidine-1-yl)-5-((6-((R)-3-(6-methylpyridine-3-yl)isoxazolidine-2-yl)pyrimidine-4-yl)amino)phenyl)acrylamide] | B (50 nM ≤ GI50 < 500 nM)
15 | C=CC(=O)Nc1cc(Nc2cc(N3OCC[C@@H]3c3ccc(F)c(Cl)c3)ncn2)c(OC)cc1N1CCC(N2C[C@H]3C[C@@H]2CO3)CC1 [Example 257, N-(2-(4-((1R,4R)-2-oxa-5-azabicyclo[2.2.1]heptane-5-yl)piperidine-1-yl)-5-((6-((R)-3-(3-chloro-4-fluorophenyl)isoxazolidine-2-yl)pyrimidine-4-yl)amino)-4-methoxyphenyl) acrylamide] | A (GI50 < 50 nM)
16 | C=CC(=O)Nc1cc(Nc2cc(N3OCC[C@@H]3c3ccc(Cl)cc3)ncn2)c(OC)cc1N1CCC(N2CC[C@@H](N(C)C)C2)CC1 [compound 783, N-(5-((6-((R)-3-(4-chlorophenyl)isoxazolidine-2-yl)pyrimidine-4-yl)amino)-2-(4-((R)-3-(dimethylamino)pyrolidine-1-yl)piperidine-1-yl)-4-methoxyphenyl) acrylamide] | A (GI50 < 50 nM)
17 | C=CC(=O)Nc1cc(Nc2cc(N3OCC[C@@H]3c3ccc(F)cc3F)ncn2)c(OC)cc1N1CCN(C2CCN(C)CC2)CC1 [compound 345, N-(5-((6-((R)-3-(2,4-difluorophenyl)isoxazolidine-2-yl)pyrimidine-4-yl)amino)-4-methoxy-2-(4-(1-methylpiperidine-4-yl)piperazine-1-yl)phenyl)acrylamide] | A (GI50 < 50 nM)
18 | C=CC(=O)Nc1cc(Nc2cc(N3OCC[C@@H]3c3ccc(Cl)cc3)ncn2)c(OC)cc1N1CCC(N2C[C@H]3C[C@@H]2CO3)CC1 [compound 867, N-(2-(4-((1R,4R)-2-oxa-5-azabicyclo [2.2.1]heptane-5-yl)piperidine-1-yl)-5-((6-((R)-3-(4-chlorophenyl)isoxazolidine-2-yl)pyrimidine-4-yl)amino)-4-methoxyphenyl) acrylamide] | A (GI50 < 50 nM)
19 | C=CC(=O)Nc1cc(Nc2cc(N3OCC[C@@H]3c3cc(F)cc(F)c3)ncn2)c(OC)cc1N1CCC(N2CCN(C3CC3)[C@H](C)C2)CC1 [Example 109, N-(2-(4-((R)-4-cyclopropyl-3-methylpiperazine-1-yl)piperidine-1-yl)-5-((6-((R)-3-(3,5-difluorophenyl)isoxazolidine-2-yl)pyrimidine-4-yl)amino)-4-methoxyphenyl) acrylamide] | A (GI50 < 50 nM)
20 | C=CC(=O)Nc1cc(Nc2cc(N3OCC[C@@H]3c3cccc(C#N)c3)ncn2)c(OC)cc1N1CCN(C)CC1 [compound 393, N-(5-((6-((R)-3-(3-cyanophenyl)isoxazolidine-2-yl)pyrimidine-4-yl)amino)-4-methoxy-2-(4-methylpiperazine-1-yl)phenyl)acrylamide] | B (50 nM ≤ GI50 < 500 nM)
21 | C=CC(=O)Nc1cc(Nc2cc(N3OCC[C@@H]3c3cccc(Cl)c3Cl)ncn2)c(OC)cc1N1CCC(N2CCN(C3CCN(C)CC3)CC2)CC1 [compound 611] | B (50 nM ≤ GI50 < 500 nM)
22 | C=CC(=O)Nc1cc(Nc2cc(N3OCC[C@@H]3c3cccc(F)c3F)ncn2)c(OC)cc1N1CCO[C@H](C)C1 [compound 889, N-(5-((6-((R)-3-(2,3-difluorophenyl)isoxazolidine-2-yl)pyrimidine-4-yl)amino)-4-methoxy-2-((R)-2-methylmorpholino)phenyl)acrylamide] | A (GI50 < 50 nM)
23 | C=CC(=O)Nc1cc(Nc2cc(N3OCC[C@@H]3c3ccc(F)cc3F)ncn2)c(OC)cc1N1CCN(C2CCCC2)CC1 [compound 348, N-(2-(4-cyclopentylpiperazine-1-yl)-5-((6-((R)-3-(2,4-difluorophenyl)isoxazolidine-2-yl)pyrimidine-4-yl)amino)-4-methoxyphenyl) acrylamide] | A (GI50 < 50 nM)
